The record followed here is ChEMBL document CHEMBL5729768, “Azalactam compounds as HPK1 inhibitors” (2023).

Assay [1] concerns the target T1, Serine/threonine-protein kinase D2 (Homo sapiens, UniProt Q9BZL6).
T1 sequence (Q9BZL6 whole entry): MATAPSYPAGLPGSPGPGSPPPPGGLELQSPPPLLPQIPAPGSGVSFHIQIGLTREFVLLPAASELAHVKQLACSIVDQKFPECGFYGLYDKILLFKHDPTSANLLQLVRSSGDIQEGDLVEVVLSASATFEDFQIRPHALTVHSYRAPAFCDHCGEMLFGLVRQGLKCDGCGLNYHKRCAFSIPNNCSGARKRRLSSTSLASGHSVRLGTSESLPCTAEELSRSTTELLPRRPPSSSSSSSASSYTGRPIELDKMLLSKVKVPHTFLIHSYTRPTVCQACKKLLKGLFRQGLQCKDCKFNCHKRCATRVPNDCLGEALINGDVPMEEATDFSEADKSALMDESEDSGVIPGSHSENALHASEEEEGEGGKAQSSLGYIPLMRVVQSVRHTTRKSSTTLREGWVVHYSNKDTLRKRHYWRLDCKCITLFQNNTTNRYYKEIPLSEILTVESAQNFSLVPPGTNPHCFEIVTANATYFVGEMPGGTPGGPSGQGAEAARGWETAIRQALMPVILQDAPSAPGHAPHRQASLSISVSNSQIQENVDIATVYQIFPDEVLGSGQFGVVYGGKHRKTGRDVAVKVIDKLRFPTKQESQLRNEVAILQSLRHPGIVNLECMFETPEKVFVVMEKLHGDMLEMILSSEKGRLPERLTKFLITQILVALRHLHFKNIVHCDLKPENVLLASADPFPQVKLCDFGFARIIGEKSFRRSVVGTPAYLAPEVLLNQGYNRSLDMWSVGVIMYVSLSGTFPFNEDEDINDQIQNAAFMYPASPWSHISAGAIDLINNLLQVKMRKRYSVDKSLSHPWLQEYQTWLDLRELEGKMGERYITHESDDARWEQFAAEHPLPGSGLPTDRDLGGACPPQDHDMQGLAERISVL

Assay [2] addresses Ribosomal protein S6 kinase alpha-2 (Homo sapiens, UniProt Q15349).

Chain of Ribosomal protein S6 kinase alpha-2 (Q15349 whole entry): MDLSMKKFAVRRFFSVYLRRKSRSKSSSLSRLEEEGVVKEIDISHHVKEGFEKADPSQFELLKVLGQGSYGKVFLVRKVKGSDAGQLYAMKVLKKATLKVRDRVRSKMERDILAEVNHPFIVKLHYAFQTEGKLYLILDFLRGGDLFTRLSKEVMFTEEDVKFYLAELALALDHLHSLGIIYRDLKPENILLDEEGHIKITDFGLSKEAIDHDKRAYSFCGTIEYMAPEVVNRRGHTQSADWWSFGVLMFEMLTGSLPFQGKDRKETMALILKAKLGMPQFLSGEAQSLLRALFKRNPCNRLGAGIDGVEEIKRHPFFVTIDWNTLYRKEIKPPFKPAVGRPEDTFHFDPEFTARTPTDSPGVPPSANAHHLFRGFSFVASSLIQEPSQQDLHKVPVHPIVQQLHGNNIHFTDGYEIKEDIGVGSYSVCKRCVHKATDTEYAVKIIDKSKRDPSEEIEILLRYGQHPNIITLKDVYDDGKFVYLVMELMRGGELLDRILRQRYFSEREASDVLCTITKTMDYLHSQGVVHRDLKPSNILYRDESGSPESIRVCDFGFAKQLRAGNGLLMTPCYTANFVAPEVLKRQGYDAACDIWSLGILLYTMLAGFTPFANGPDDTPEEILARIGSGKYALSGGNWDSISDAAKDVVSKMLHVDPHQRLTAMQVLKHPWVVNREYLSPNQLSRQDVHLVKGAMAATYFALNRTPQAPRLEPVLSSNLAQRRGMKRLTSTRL

One may read the IC50 as the concentration that gives 50% inhibition. High values mean lower potency, low ones higher potency. Regarding `COC[C@@H](N)c1nc(C2(C)CC2)cc2c1CN(c1cccc(-c3nnc4n3[C@@H](C)CC4)n1)C2=O`, the IC50 in assay [1] came to 0.942 µM; in assay [2], 0.0486 µM.
Consider `CC[C@@H](N)c1nc(N(C)C(C)C)cc2c1CN(c1cccc(-c3nnc4n3[C@@H](C)CC4)n1)C2=O`, for which the IC50 in assay [1] was determined as 0.251 µM; in assay [2], 0.0535 µM.
